Experiment [1] has as its target Tyrosine-protein kinase JAK1 (Homo sapiens) (UniProt P23458). Nature of the experiment: Inhibition of JAK1 JH1 catalytic domain (unknown origin) assessed as residual activity at 100 nM by KINOMEscan analysis relative to control.
The target in experiment [2] is T1, Dual specificity mitogen-activated protein kinase kinase 3 (Homo sapiens) (UniProt P46734).
T1 sequence (whole entry): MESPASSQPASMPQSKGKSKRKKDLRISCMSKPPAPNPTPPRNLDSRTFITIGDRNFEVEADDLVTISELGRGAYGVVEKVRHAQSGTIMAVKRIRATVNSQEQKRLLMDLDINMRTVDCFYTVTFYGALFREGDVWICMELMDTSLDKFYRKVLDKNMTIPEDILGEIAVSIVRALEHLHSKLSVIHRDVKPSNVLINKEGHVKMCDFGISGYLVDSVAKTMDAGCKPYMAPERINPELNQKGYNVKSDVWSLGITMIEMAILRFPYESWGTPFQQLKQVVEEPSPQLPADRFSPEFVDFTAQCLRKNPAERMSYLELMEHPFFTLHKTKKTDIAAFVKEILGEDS
Nature of the experiment: Inhibition of MEK3 (unknown origin) assessed as residual activity at 100 nM by KINOMEscan analysis relative to control.

Experiment [3] concerns the target T2, NUAK family SNF1-like kinase 1 (Homo sapiens) (UniProt O60285).
T2 sequence (whole entry): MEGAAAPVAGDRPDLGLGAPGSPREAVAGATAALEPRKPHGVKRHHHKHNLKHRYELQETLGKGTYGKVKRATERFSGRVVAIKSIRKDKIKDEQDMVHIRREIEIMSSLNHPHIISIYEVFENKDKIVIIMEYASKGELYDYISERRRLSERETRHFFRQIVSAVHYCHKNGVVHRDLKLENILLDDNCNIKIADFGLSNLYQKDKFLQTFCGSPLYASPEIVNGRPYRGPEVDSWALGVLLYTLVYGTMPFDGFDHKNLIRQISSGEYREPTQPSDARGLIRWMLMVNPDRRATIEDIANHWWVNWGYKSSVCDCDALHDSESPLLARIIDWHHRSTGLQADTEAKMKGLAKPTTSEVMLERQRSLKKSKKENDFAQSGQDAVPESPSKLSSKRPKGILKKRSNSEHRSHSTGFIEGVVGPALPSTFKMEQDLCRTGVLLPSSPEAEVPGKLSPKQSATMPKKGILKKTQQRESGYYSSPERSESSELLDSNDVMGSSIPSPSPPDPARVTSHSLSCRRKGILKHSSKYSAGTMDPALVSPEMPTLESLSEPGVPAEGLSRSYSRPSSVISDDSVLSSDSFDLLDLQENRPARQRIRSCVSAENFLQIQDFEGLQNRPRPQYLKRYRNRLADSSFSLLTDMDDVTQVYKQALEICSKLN
Nature of the experiment: Inhibition of ARK5 (unknown origin) assessed as residual activity at 100 nM by KINOMEscan analysis relative to control.

Experiment [4] has as its target Dual specificity protein kinase CLK4 (Homo sapiens) (UniProt Q9HAZ1). Nature of the experiment: Inhibition of CLK4 (unknown origin) assessed as residual activity at 100 nM by KINOMEscan analysis relative to control.
Experiment [5] has as its target High affinity nerve growth factor receptor (Homo sapiens) (UniProt P04629). Nature of the experiment: Inhibition of TRKA (unknown origin) assessed as residual activity at 100 nM by KINOMEscan analysis relative to control.
Experiment [6] concerns the target T3, Serine/threonine-protein kinase D2 (Homo sapiens) (UniProt Q9BZL6).
T3 sequence (whole entry): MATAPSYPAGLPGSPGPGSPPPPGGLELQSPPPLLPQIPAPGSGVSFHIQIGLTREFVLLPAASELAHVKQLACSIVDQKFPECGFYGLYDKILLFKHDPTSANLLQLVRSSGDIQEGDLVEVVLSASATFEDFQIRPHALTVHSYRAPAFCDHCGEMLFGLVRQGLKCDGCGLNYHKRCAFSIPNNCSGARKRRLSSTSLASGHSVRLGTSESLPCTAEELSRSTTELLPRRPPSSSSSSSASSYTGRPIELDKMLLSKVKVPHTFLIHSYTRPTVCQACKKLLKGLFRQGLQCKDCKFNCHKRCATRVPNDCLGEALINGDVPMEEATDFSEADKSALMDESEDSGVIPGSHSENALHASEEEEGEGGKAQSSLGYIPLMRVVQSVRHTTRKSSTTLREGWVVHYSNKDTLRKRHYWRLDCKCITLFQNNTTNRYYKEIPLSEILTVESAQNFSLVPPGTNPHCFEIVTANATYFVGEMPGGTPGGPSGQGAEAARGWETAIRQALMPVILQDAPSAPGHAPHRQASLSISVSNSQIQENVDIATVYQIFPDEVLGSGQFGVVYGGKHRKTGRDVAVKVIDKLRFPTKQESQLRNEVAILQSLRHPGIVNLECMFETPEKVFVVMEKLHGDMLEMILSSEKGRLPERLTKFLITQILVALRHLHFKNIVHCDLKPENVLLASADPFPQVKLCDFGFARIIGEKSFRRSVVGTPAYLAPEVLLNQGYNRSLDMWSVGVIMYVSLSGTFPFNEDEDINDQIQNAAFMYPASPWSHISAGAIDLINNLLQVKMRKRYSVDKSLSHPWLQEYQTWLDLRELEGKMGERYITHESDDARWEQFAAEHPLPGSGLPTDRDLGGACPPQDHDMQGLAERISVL
Nature of the experiment: Inhibition of PRKD2 (unknown origin) assessed as residual activity at 100 nM by KINOMEscan analysis relative to control.

The species entered for experiment [7] is Homo sapiens. Nature of the experiment: Stabilization of N-terminal His10-tagged recombinant human KRAS G12C/C118S mutant (1 to 169 residues) expressed in Escherichia coli assessed as change in melting temperature at 100 uM with heating from 25 to 85 degreeC by thermal shift assay.
In experiment [8] the test system is Tyrosine-protein kinase ABL1 (Homo sapiens), P00519 [T315I]. Nature of the experiment: Inhibition of nonphosphorylated ABL1 T315I mutant (unknown origin) assessed as residual activity at 100 nM by KINOMEscan analysis relative to control.

Chain of High affinity nerve growth factor receptor (Homo sapiens) (P04629 33-796 limits assumed): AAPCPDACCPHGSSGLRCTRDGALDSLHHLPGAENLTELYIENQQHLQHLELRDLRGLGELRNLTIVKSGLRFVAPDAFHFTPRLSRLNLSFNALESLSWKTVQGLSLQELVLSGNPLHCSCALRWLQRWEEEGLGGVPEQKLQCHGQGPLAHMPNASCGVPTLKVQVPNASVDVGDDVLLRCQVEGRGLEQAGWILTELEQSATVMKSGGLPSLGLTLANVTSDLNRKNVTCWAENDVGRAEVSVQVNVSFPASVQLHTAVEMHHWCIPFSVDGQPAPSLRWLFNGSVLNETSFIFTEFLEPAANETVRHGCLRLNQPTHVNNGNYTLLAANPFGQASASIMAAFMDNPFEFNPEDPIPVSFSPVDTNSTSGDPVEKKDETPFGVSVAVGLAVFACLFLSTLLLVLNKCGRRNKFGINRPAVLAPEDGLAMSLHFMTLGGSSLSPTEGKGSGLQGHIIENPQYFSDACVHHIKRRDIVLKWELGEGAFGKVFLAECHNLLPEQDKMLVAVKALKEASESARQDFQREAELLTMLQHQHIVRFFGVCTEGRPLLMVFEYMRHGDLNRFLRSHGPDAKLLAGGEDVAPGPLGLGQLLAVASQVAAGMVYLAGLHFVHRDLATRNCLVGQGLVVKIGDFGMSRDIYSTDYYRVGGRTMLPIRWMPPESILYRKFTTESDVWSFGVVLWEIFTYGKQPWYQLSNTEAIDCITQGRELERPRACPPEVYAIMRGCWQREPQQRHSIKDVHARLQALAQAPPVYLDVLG
Chain of Dual specificity protein kinase CLK4 (Homo sapiens) (Q9HAZ1 whole entry, looked up): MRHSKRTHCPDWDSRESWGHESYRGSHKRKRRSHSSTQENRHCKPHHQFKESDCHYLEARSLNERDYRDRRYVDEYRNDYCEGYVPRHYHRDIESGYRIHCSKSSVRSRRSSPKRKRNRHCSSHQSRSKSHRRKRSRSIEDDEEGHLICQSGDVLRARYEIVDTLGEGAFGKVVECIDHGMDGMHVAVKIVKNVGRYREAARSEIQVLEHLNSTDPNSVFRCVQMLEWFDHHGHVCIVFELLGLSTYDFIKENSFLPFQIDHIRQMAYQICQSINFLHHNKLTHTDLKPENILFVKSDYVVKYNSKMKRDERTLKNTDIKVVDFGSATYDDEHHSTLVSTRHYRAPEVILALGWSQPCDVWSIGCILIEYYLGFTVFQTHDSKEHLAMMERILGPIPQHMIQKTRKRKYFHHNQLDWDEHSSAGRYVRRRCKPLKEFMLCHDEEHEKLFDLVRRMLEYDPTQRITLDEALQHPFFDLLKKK
Chain of Tyrosine-protein kinase JAK1 (Homo sapiens) (P23458 whole entry, the tested form may be a part): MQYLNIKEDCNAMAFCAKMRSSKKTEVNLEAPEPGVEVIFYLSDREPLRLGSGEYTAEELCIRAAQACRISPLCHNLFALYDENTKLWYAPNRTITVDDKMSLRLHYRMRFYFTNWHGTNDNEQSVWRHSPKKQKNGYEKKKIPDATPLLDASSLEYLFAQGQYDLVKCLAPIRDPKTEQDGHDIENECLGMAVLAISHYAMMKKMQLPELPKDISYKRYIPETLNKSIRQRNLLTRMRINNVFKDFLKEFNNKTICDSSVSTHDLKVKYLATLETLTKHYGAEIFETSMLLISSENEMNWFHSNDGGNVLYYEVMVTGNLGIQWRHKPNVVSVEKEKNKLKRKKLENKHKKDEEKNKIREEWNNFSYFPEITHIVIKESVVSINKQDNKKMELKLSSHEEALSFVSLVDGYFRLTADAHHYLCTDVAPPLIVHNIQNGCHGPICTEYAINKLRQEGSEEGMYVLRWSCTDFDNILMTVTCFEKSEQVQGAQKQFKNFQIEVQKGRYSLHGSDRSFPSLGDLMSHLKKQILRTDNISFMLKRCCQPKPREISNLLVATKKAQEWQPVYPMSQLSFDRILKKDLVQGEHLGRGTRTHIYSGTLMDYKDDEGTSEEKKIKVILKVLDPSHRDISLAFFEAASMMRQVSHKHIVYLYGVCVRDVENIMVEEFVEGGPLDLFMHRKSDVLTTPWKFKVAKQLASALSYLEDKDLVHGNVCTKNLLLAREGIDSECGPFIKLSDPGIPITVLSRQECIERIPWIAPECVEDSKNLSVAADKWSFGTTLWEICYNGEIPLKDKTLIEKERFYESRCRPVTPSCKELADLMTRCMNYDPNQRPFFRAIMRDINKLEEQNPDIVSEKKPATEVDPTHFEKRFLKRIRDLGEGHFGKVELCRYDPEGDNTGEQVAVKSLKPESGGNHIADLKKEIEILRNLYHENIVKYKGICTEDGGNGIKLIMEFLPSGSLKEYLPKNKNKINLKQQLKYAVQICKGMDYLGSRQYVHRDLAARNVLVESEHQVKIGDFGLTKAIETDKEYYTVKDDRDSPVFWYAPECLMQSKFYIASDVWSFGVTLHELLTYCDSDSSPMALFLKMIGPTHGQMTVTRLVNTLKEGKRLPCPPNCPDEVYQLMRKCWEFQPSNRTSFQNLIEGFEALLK

As a reminder, the ΔTm is the shift of the melting midpoint relative to a reference. For the molecule `COc1cc2ncnc(N[C@H](C)c3cccc4ccccc34)c2cc1OC`, the Activity in experiment [1] amounted to 79%; in experiment [2], 90%; in experiment [3] it was 87%; in experiment [4] it was 87%; in experiment [5], 100%; in experiment [6], 80%. Moreover, in experiment [8], the Activity was determined as 100%. The ΔTm in experiment [7] was -1.9 °C.

Source of the values: ChEMBL document CHEMBL5678818, “Discovery of potent SOS1 inhibitors that block RAS activation via disruption of the RAS-SOS1 interaction” (Proc Natl Acad Sci U S A, 2019).
